Assay results as given in patent US5567704A, “R-enatiomerically pure hydroxylated xanthine compounds to treat baldness” (priority 1995, dated 1996).

Assays:
[1] = system: PBMC (peripheral blood mononuclear cells); assay: two-way mixed lymphocyte reaction (MLR); format: cell-based, human; settings: FIG. 1
Text: Various in vitro assays can be used to measure effects of the inventive compounds to module immune activity and have antitumor activity using a variety of cellular types. For example, a mixed lymphocyte reaction (MLR) provides a valuable screening tool to determine biological activity of each inventive compound. In the MLR, PBMCs (peripheral blood mononuclear cells) are obtained by drawing whole blood from healthy volunteers in a heparinized container and diluted with an equal volume of hanks balanced salt solution (HBSS). This mixture is layered on a sucrose density gradient, such as a Ficoll-Hypaque® gradient (specific gravity 1.08), and centrifuged at 1000× g for 25 minutes at room temperature or cooler. PBMC are obtained from a band at a plasma-Ficoll interface, separated and washed at least twice in a saline solution, such as HBSS. Contaminating red cells are lysed, such as by ACK lysis for 10 min at 37° C., and the PBMCs are washed twice in HBSS. The pellet of purified PBMCs is resuspended in complete medium, such as RPMI 1640 plus 20% human inactivated serum. Proliferative response of PBMC to allogeneic stimulation is determined in a two-way MLR performed in a 96-well microtiter plate. […] At the conclusion of the incubation tritiated thymidine is added (for example, 1 μCi/well of 40 to 60 Ci/mmole) and proliferation determined by liquid scintillation counting. […]

[2] = system: IL-1α release in peritoneal macrophages; assay: IL-1α release in LPS activated PEC (ELISA); format: cell-based, murine; settings: Mus musculus, Peritoneal macrophage, at 24 hours after LPS, FIG. 19, read-out: maximum inhibition of IL-1α release
Method: Murine peritoneal exudate cell macrophages (PEC) were isolated by perfusion of mouse peritoneum and plated into 96-well trays at 5×10^5 cells per well. Cells were stimulated with 5 μg/ml Salmonella abortus equi -derived endotoxin (LPS; Sigma Chemical Co., L-1887) or […] IL-1α (Genzyme; Cambridge, Mass.) with or without the addition of CT1501R added to the cultures one hour prior to addition of the stimulus. At various times thereafter, supernatants were removed and levels of either TNF-α or IL-1α were assayed using commercial 96-well microtiter immunoassay kits (Genzyme; TNF; Endogen, Boston, Mass.; IL-1α) according to manufacturer's specifications. For the adhesion studies, early passage human umbilical vein endothelial cells (HUVEC) were obtained. from commercial suppliers (Clonetics, San Diego, Calif. or Cell Systems, Seattle, Wash.) and cultured in defined, Hepes buffered, serum free medium (Cell Systems, cat 301-180) supplemented with acidic FGF (Cell Systems cat 401-111). 4000 cells were plated into each well of a 96-well microtiter plate and allowed to incubate for 72 hrs at 37° C. […] After addition of […] Hanks Balanced Salt Solution (HBSS), the microtiter plate was then analyzed on a Millipore Cytofluor fluorescent plate reader (excitation 488 nm; emission 525 nm). […]

TNF-α = assay: mouse plasma TNF-α ELISA after endotoxin; format: in vivo; settings: for Plasma TNF: LPS + CT-1501R
Method: For ELISA measurements of cytokine levels in plasma, blood was collected by retro-orbital or cardiac puncture of anesthetized mice, immediately centrifuged and the EDTA plasma stored at -70° C. Particulate free plasma was thawed on ice and cytokine levels determined utilizing commercial ELISA assays with normal mouse plasma used to generate standard curves. Murine tumor necrosis factor-α and interleukin-1αkits were purchased from Genzyme (Cambridge, Mass.) and Endogen (Boston, Mass.), respectively. Each data point was an average of two ELISA measurements made from EDTA […] pooled from three mice. The data summarized in Table 3 were compiled from two independent experiments; data from Table 4 and 5 were from single experiments of three mice per data point.
Levels of TNF-α, IL-1α and IL-6 were measured in the plasma of mice as a function of time following treatment with S. abortus endotoxin. […] TNF-α levels peaked within 1 hour of treatment of endotoxin (Table 4 and FIG. 6). Treatment of the mice with CT1501R decreased the levels of TNF-α in the EDTA plasma of endotoxin treated mice at all time points measured. In particular, peak levels of TNF-α at 0.5 and 1 hour post endotoxin were decreased 2.5 and 2.6 fold respectively in the CT1501R treated mice.

C[C@@H](O)CCCCn1c(=O)c2c(ncn2C)n(C)c1=O [CT1501R, (R)-1-(5-hydroxyhexyl)-3,7-dimethylxanthine]
proliferative response of PBMC to allogeneic stimulation [1]: showed dose-response activity
inhibition at 250 µM [2]: ~50%
fold decrease of plasma TNF-α (TNF-α; 0.5 hour post endotoxin): 2.5 fold
fold decrease of plasma TNF-α (TNF-α; 1 hour post endotoxin): 2.6 fold
Plasma TNF (TNF-α; 0 hours post LPS): 0 pg/mL
Plasma TNF (TNF-α; 0.17 hours post LPS): 6 pg/mL
Plasma TNF (TNF-α; 0.5 hours post LPS): 390 pg/mL
Plasma TNF (TNF-α; 1 hour post LPS): 1728 pg/mL
Plasma TNF (TNF-α; 2 hours post LPS): 940 pg/mL
Plasma TNF (TNF-α; 4 hours post LPS): 400 pg/mL
Plasma TNF (TNF-α; 6 hours post LPS): 350 pg/mL
